Measurements as given in patent US20110184034A1, “Severe sepsis preventive therapeutic agent” (priority 2002, published 2011).

Columns and labels:
[1] = tested on: IL-6 production, mouse macrophage cell line RAW264.7; assay: IL-6 production by β-amyloid peptide (1-40) in RAW264.7; type: cell-based; details: β-amyloid peptide (1-40) 10 μM + interferon-γ 10 U/mL
Experimental: (§1) On the previous day of the experiment, the cells were suspended in RPMI-1640 medium supplemented with 10% inactivated fetal calf serum to 5×10^5 cells/mL and inoculated to a 96-well microplate at 0.2 mL/well. After incubation at 37° C. under 5% CO2/95% air overnight, the medium was changed to an RPMI-1640 medium supplemented with 1% inactivated fetal calf serum, a test substance and β-amyloid peptide (1-40) (final concentration 10 μM) and interferon-γ (final concentration 10 U/mL) were added. After further incubation overnight, the concentrations of tumor necrosis factor-α (TNF-α) and IL-6 in culture supernatants were measured using an enzyme immunoassay kit manufactured by Amersham. The test substance was dissolved at 10 mM in N,N-dimethylformamide and diluted with an RPMI-1640 medium supplemented with 1%, inactivated fetal calf serum to the concentration of 0.1 mM, then diluted with a medium to a 10-fold concentration of the final concentration and 1/10 was added.

[2] = tested on: TNF-α production, mouse macrophage cell line RAW264.7; assay: TNF-α production by β-amyloid peptide (1-40) in RAW264.7; type: cell-based; details: β-amyloid peptide (1-40) 10 μM + interferon-γ 10 U/mL
Experimental: as §1

[3] = tested on: LPS-inoculated female BALB/c mice; assay: Effect by administration after LPS inoculation in endotoxin shock model (1), survival; type: in vivo, mouse; details: LPS 10 mg/kg i.p.; test substance 30 mg/kg i.p. at 1 hr after LPS inoculation; observed one week
Experimental: To investigate the treatment effect during the process toward an advanced degree after the onset of sepsis, the effect of a test substance (Reference Example B1) by administration after LPS inoculation in an endotoxin shock model was investigated. […] The test substance was suspended in 0.5% aqueous methyl cellulose solution, and intraperitoneally inoculated (30 mg/kg) at 1 hr before, immediately after, 30 min after and 1 hr after LPS inoculation. The solvent was given to the control group at 1 hr before LPS inoculation.

[4] = tested on: male Sprague-Dawley rats, balloon-injured carotid artery; assay: Rat balloon injury model, vascular thickening (DNA content of carotid artery); type: in vivo; details: 30 and 100 mg/kg/d i.p. once a day, 2 weeks
Experimental: Using male Sprague-Dawley rats, the neck was incised under sodium pentobarbital (45 mg/kg ip) anesthesia to expose left carotid artery. A Forgaty catheter (2F, manufactured by Baxtar) was inserted from the […] to a bifurcation area of internal and external carotid arteries of left carotid artery, a balloon was blown and abraded to the aortic arch bifurcation. This operation was repeated three times to injure the common carotid artery. After the injury, the catheter was extracted, the incision was sutured, and the rats were individually bred in ordinary breeding cages. After 2 weeks from the injury, the rats were exsanguinated under anesthesia, and the left (injured) side and the right (non-injured) side of carotid arteries were removed by 5 mm on the heart side, at 5 mm from the internal and external carotid artery bifurcation area, and the DNA content was measured. The drug (Reference Example B3) was suspended in 0.5% methyl cellulose, and intraperitoneally administered once a day from the day of balloon injury operation to carotid artery enucleation. When balloon injury operation was performed, the drug was administered 30 min before anesthesia and the balloon injury was produced.

[5] = tested on: female CBA/J mice, DSS induced colitis; assay: Dextran sulfate induced colitis model; type: in vivo, mouse; details: for BW (%) / Hb / Ht (%) / RBC / WBC: means ± SE of six mice; for GBS (%) (grossly bloody stool): six mice
Experimental: A 5% dextran sulfate (DSS) solution was placed in a water feeder to allow free drinking by female CBA/J mice (8 w) for 5 days, the solution was changed to 1% DSS solution on day 6 to allow free drinking for 7 days. The drug (Reference Example B3) (10-30 mg/kg) was suspended in 0.5% methyl cellulose (MC), and orally administered from day 6 under 1% DSS solution drinking once a day for 7 days. After 12 days of drinking DSS, the body weight was measured and stool was observed (grossly bloody stool: GBS). Blood was drawn and white blood count (WBC), red blood count (RBC), hemoglobin concentration (Hb) and hematocrit value (Ht) were measured by using an automatic cell counter (Sysmex).

[6] = tested on: male DBA/1 mice, type II collagen induced arthritis; assay: Collagen induced arthritis model; type: in vivo, mouse; details: for Arthritis incidence (%) / Arthritis index: 30 mg/kg orally once a day from collagen immunization
Experimental: Bovine-derived type II collagen was dissolved in 0.050 acetic acid solution, and an equivalent amount of Freund's complete adjuvant was mixed therewith to give an emulsion. The collagen emulsion was administered intracutaneously into the tail head of male DBA/1 mice (6W) (n=10-12) at 100 μg/0.1 mL to induce arthritis. The levels of flare and edema of four limbs were visually observed during the progress thereof. The drug (Reference Example B3) (30 mg/kg) was suspended in 0.5% MC, and orally administered once a day from collagen immunization for 8 weeks (except Sundays). The onset of arthritis was evaluated every week, and the rate of onset was expressed by (number of limbs having arthritis/number of limbs of mice in one group×100). As indices of arthritis, for each limb, no change was 0, swelling of one finger or plural fingers was 1, flare and swelling seen in the entirety was 2, strong swelling seen in the entirety was 3, crampus tonicus of joint was 4, and the total of four limbs was 16, and arthritis was expressed in (total of all scores of onset mice/number of limbs of mice in one group), wherein 4 was the highest value for one limb.

[7] = tested on: E. coli O111 inoculated galactosamine-loaded female BALB/c mice; assay: Galactosamine loaded mouse Escherichia coli inoculated lethal model, survival; type: in vivo; details: E. coli O111 5.9×10^5 CFU i.p. with galactosamine 1 g/kg; test substance 30 mg/kg orally at 1 hr after bacterial inoculation; observed 6 days
Experimental: Since sepsis is a systemic inflammatory response caused by infection, the effect of a test substance (Reference Example B26) by administration after bacterial inoculation in infection model was studied. […] The test substance was suspended in 0.5% aqueous methyl cellulose solution, and orally administered (30 mg/kg) immediately, 30 min and 1, 2 and 4 hr after the bacterial inoculation. The solvent was orally administered to the control group immediately after the bacterial inoculation.
In other words, the test substance can be expected to show effect of improving the state of severe sepsis complicated with organ dysfunction.

[8] = tested on: TLR9 signal (CPG), mouse macrophage cell line RAW264.7; assay: NO production by TLR9 selective agonist CpG oligoDNA (CPG) in RAW264.7; type: cell-based; details: RAW264.7, CpG oligoDNA 75 nmol/L + interferon-γ 0.1 ng/mL, nitrite ion
Experimental: (§2) Using mouse macrophage cell line RAW264.7, the suppressive effect of the test substance on cytokine production by a TLR selective agonist was investigated. On the previous day of the experiment, the cells were suspended in RPMI-1640 medium supplemented with 10% inactivated fetal calf serum to 5×10^5 cells/mL and inoculated to a 96-well microplate at 0.2 mL/well. After incubation at 37° C. under an atmosphere of 5% CO2/95% air overnight, the medium was changed to an RPMI-1640 medium supplemented with 1% inactivated fetal calf serum, and a test substance, various TLR agonists and interferon-γ (final concentration 0.1 ng/mL) were added. After further incubation overnight, the concentration of nitrite ion (stable metabolite of NO) in the culture supernatant was quantified by fluorescence method using 2,3-dimaminonaphthalene. As the TLR4 selective agonist, LPS was added, as the TLR2 selective agonist, peptide glycan (PGN) was added, and as the TLR9 selective agonist, CpG oligoDNA (CPG) was added, to the final concentrations of 5 ng/mL, 1 μg/mL and 75 nmol/L, respectively. In addition, the test substance was dissolved at 10 mM in N,N-dimethylformamide, diluted with an RPMI-1640 medium supplemented with 1% inactivated fetal calf serum to the concentration of 0.1 mM, then diluted with a medium to a 10-fold concentration of the final concentration and 1/10 was added.

[9] = tested on: TLR4 signal (LPS), mouse macrophage cell line RAW264.7; assay: NO production by TLR4 selective agonist LPS in RAW264.7; type: cell-based; details: RAW264.7, LPS 5 ng/mL + interferon-γ 0.1 ng/mL, nitrite ion
Experimental: as §2

[10] = tested on: TLR2 signal (PGN), mouse macrophage cell line RAW264.7; assay: NO production by TLR2 selective agonist peptide glycan (PGN) in RAW264.7; type: cell-based; details: RAW264.7, PGN 1 μg/mL + interferon-γ 0.1 ng/mL, nitrite ion
Experimental: as §2

[11] = tested on: LPS-inoculated female BALB/c mice; assay: Effect by administration after LPS inoculation in endotoxin shock model (2), survival; type: in vivo, mouse; details: LPS 4 mg/kg i.p.; test substance 10 mg/kg i.v. (soybean oil emulsion) at 4 hr after LPS inoculation; observed 5 days
Experimental: To investigate the treatment effect during the process toward an advanced degree after the onset of sepsis, the effect of a test substance (Reference Example B66) by administration after LPS inoculation in an endotoxin shock model was investigated. […] The test substance was prepared into an emulsified liquid of a soybean oil, and intravenously administered (10 mg/kg) immediately after, 1, 2, 4 and 6 hr after LPS inoculation. An emulsified liquid without a drug was intravenously administered to the control group immediately after LPS inoculation.

[12] = 10 mg/kg orally once a day for 7 days
[13] = 30 mg/kg orally once a day for 7 days

How did the “Suppressive rate (%) IL-6” value ([1]; 1 μM) turn out when `CCOC(=O)C1=CCCCC1S(=O)(=O)Nc1ccc(Cl)cc1F` (stereo not drawn) [Reference Example B1, ethyl 6-[N-(4-chloro-2-fluorophenyl)-sulfamoyl]-1-cyclohexene-1-carboxylate] was run?
Its value is 80%.

And the “Suppressive rate (%) IL-6” value ([1]; 10 μM)?
The value was 100%.

And the “Suppressive rate (%) TNF-α” value ([2]; 1 μM)?
The value was 77%.

What about the “Suppressive rate (%) TNF-α” value ([2]; 10 μM) of the same molecule?
The value was 99%.

What about the “life-saving effect (survival)” value [3] of the same molecule?
Its value is “clear life-saving effect”.

Which “vascular thickening due to balloon injury (DNA content)” value [4] does the source give for `CCOC(=O)C1=CCCCC1S(=O)(=O)Nc1ccc(F)cc1F` (stereo not drawn) [Reference Example B3, ethyl 6-[N-(2,4-difluorophenyl)sulfamoyl]-1-cyclohexene-1-carboxylate] here?
The value was “suppressed vascular thickening due to balloon injury in a dose-dependent manner”.

And the “Suppressive rate (%) IL-6” value ([1]; 1 μM)?
The value was 100%.

And the “Suppressive rate (%) IL-6” value ([1]; 10 μM)?
Its value is 100%.

What about the “BW (%)” value [5, 12] of the same molecule?
Its value is 102.0 ± 7.1%.

And the Hb [5, 12]?
The Hb was 13.2 ± 0.8 g/dL.

And the “Ht (%)” value [5, 12]?
The value was 35.4 ± 2.7%.

What about the RBC [5, 12] of the same molecule?
The RBC was 607.5 ± 45.3 ×10^4/μL.

What about the WBC [5, 12] of the same molecule?
Its WBC is 41.0 ± 4.1^+ ×10^2/μL.

And the “GBS (%) (grossly bloody stool)” value [5, 12]?
Its value is 83%.

What about the “BW (%)” value [5, 13] of the same molecule?
Its value is 102.8 ± 7.9%.

What about the Hb [5, 13] of the same molecule?
Its Hb is 12.9 ± 0.5 g/dL.

What about the “Ht (%)” value [5, 13] of the same molecule?
The value was 35.1 ± 2.7%.

What about the RBC [5, 13] of the same molecule?
Its RBC is 616.7 ± 51.1 ×10^4/μL.

What about the WBC [5, 13] of the same molecule?
Its WBC is 53.5 ± 7.8^+ ×10^2/μL.

And the “GBS (%) (grossly bloody stool)” value [5, 13]?
Its value is 67%.

And the “changes in WBC, RBC, Hb and Ht induced by DSS” value ([5]; 10-30 mg/kg orally)?
Its value is “remarkably suppressed changes in WBC, RBC, Hb and Ht induced by DSS”.

And the “incidence and index of arthritis” value ([6]; 30 mg/kg orally)?
Its value is “decreased the incidence and index of arthritis”.

And the “Arthritis incidence (%)” value ([6]; 6W)?
Its value is 37.5%.

And the Arthritis index ([6]; 6W)?
The Arthritis index was 0.65.

And the “Arthritis incidence (%)” value ([6]; 7W)?
Its value is 40.0%.

And the Arthritis index ([6]; 7W)?
Its Arthritis index is 0.80.

What about the “Arthritis incidence (%)” value ([6]; 8W) of the same molecule?
The value was 60.0%.

And the Arthritis index ([6]; 8W)?
The Arthritis index was 1.15.

What about the “Suppressive rate (%) TNF-α” value ([2]; 1 μM) of the same molecule?
Its value is 87%.

What about the “Suppressive rate (%) TNF-α” value ([2]; 10 μM) of the same molecule?
The value was 97%.

Which results are given for `CCOC(=O)C1=CCCCC1S(=O)(=O)Nc1ccc(F)cc1Cl` (stereo not drawn) [Reference Example B26, ethyl 6-[N-(2-chloro-4-fluorophenyl)-sulfamoyl]-1-cyclohexene-1-carboxylate]?
life-saving effect (survival) [7]: clear life-saving effect; Suppressive rate (%) IL-6 ([1]; 1 μM): 93%; Suppressive rate (%) IL-6 ([1]; 10 μM): 96%; Suppressive rate (%) TNF-α ([2]; 1 μM): 88%; Suppressive rate (%) TNF-α ([2]; 10 μM): 100%

Which IC50 [8] does the source give for `CCOC(=O)C1=CCCC[C@H]1S(=O)(=O)Nc1ccc(F)cc1Cl` [Reference Example B66, ethyl (6R)-6-[(2-chloro-4-fluoroanilino)sulfonyl]-1-cyclohexene-1-carboxylate] here?
Its IC50 is over 1000 nM.

What about the IC50 [9] of the same molecule?
The IC50 was 10 nM.

What about the IC50 [10] of the same molecule?
The IC50 was over 1000 nM.

And the “life-saving effect (survival)” value [11]?
The value was “clear life-saving effect”.

Which IC50 [8] does the source give for `CCOC(=O)C1=CCCCC1S(=O)(=O)Cc1ccc(F)cc1Cl` (stereo not drawn) [Reference Example D4, ethyl 6-[(2-chloro-4-fluorobenzyl)sulfonyl]-1-cyclohexene-1-carboxylate] here?
Its IC50 is over 1000 nM.

And the IC50 [9]?
The IC50 was 11 nM.

What about the IC50 [10] of the same molecule?
Its IC50 is over 1000 nM.

What does the source list for `CCOC(=O)C1=CCOCC1S(=O)(=O)Nc1ccc(F)cc1Cl` (stereo not drawn) [Reference Example D7, ethyl 3-[(2-chloro-4-fluorophenyl)sulfamoyl]-3,6-dihydro-2H-pyran-4-carboxylate]?
IC50 [8]: > 1000 nM; IC50 [9]: 18 nM; IC50 [10]: 530 nM
